Patent US20240300941A1, “HPK1 INHIBITORS, PREPARATION METHOD AND APPLICATION THEREOF” (ZHUHAI YUFAN BIOTECHNOLOGIES CO., LTD., priority 2018, published 2024)

Experiments:
[1] = tested on: pSLP-76(Ser376) in Jurkat E6-1 cells; test: Jurkat E6-1 pSLP-76(Ser376) HTRF experiment; assay type: cell-based; conditions: 4 hours compound incubation, anti-human CD3 antibody 20 minutes, Phospho-SLP-76 / SLP-76 HTRF
Method: Jurkat E6-1 cells were purchased from ATCC (Cat. No. TIB-152TM) and cultured overnight with RPMI 1640 containing 0.5% o FBS, after that 20 μL (10^7 cells/mL) cells were added to the experimental plates. Then the test compounds were diluted by three-fold gradient, and 10 different concentrations were prepared, and 5 μl of each was added to the experimental plate, and incubated for 4 hours in 37° C. incubator containing 5% CO2. Then 5 ul of 6× anti-human CD3 antibody (Biolegend, Cat. No. 300432) was added and incubated for 20 minutes in 37° C. incubator containing 5% CO2. Finally, the Phospho-SLP-76 and SLP-76 results were determined using the Cisbio Phospho-SLP-76 and SLP-76 HTRF assay kits (items: 63ADK076PEH and 63ADK077PEH, respectively). Based on the results, the IC50 of the compound is calculated.

[2] = biological target: HPK1 (Homo sapiens (Human), UniProt Q92918); test: HPK1 ADP-Glo enzyme assay; assay type: biochemical; conditions: HPK1 protein 5 nM, MBP and ATP substrate, ADP-Glo readout
Chain of HPK1 (Q92918 whole entry): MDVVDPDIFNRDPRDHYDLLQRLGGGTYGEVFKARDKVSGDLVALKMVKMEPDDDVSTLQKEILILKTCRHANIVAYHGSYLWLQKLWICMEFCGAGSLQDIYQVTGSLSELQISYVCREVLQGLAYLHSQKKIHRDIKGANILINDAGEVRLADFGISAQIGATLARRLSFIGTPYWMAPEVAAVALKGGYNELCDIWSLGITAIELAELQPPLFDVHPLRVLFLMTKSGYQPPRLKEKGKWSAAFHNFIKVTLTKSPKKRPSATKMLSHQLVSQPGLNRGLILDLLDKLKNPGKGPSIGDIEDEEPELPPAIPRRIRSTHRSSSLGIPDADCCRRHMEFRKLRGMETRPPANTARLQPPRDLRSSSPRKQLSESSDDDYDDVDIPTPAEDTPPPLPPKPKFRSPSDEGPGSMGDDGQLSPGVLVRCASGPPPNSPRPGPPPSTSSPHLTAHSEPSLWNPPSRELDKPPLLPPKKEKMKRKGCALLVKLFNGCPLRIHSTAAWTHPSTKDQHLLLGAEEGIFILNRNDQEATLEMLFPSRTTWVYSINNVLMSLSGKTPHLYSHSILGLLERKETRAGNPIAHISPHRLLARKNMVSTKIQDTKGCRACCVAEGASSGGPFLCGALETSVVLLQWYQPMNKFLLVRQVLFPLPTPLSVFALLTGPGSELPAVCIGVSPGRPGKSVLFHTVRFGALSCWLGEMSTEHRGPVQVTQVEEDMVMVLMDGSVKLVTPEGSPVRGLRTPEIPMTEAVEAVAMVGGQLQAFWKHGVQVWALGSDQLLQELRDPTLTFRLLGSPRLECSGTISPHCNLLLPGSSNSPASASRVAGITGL
Method: The buffer used in the enzyme assay contains 5 mM MOPS (pH=7.2), 2.5 mM β-Glycerol Phosphate, 0.4 mM EDTA, 1 mM EGTA, 0.05 mM DTT, 5 mM MgCl2. The compound was dissolved in 100% DMSO at the concentration was 10 mM. The initial concentration of the test was 5 uM, and ten data points were diluted by three-fold gradient, and each point was repeatedly measured twice. The HPK1 protein was purchased from Thermo (Cat. No. PV6355) and diluted to 2× stock solution at the concentration of 10 nM (the final concentration of the enzyme assay was 5 nM). 2.5 µl of 2×HPK1 protein was added to each well of the plate containing the test compound, centrifuged at 1000 rpm for 30 seconds, and then incubated at 25° C. for 15 minutes. MBP protein was purchased from Millipore (Cat. No. 13-110) and ATP was purchased from Sigma (Cat. No. A7699-5G) and the two were formulated into 2× working solutions at concentrations of 4 uM and 80 uM. Added 2.5 μl mixture of 2×MBP and ATP, centrifuged at 1000 rpm for 30 seconds, then incubated at 25° C. for 90 minutes. Then added 5 ul of ADP-Glo™ (Promega, Cat. No. V9102) to the assay plate and incubated […] at 25° C. for 60 minutes. Finally, 10 ul of the kinase assay reagent (Promega, Cat. No. V9102) was added to the assay plate, centrifuged at 1000 rpm for 30 seconds at 25° C. for 60 minutes, and the […] intensity was determined.

Q: How did the IC50 [1] turn out when CN1CCC(c2ncc(-c3cnc(N)c(OCc4cccc(C#CC5(O)CCC5)c4)c3)s2)CC1 [A40] was run?
A: The IC50 was < 1000 nM.

Q: Which IC50 [1] does the source give for CC(C)c1ncc(-c2cnc(N)c(OCc3cccc(C#CC(C)(C)O)c3)c2)s1 [A41] here?
A: Its IC50 is 1000 to 50000 nM.

Q: Which IC50 [1] does the source give for CC(C)(O)C#Cc1cccc(COc2cc(-c3cnc(C4CCNCC4)s3)cnc2N)c1 [A42] here?
A: Its IC50 is < 1000 nM.

Q: Which results are given for CN1CCC(c2ccc(-c3cnc(N)c(OCc4ccncc4)c3)nc2)CC1 [A43]?
A: IC50 [1]: 1000 to 50000 nM; IC50 [2]: 100 to 1000 nM

Q: What does the source list for CN1CCC(c2ncc(-c3cnc(N)c(OCc4cncc(C#CC(C)(C)O)c4)c3)s2)CC1 [A44]?
A: IC50 [1]: 1000 to 50000 nM; IC50 [2]: < 100 nM

Q: How did the IC50 [1] turn out when CC(C)c1ncc(-c2cnc(N)c(OCc3cncc(C#CC(C)(C)O)c3)c2)s1 [A45] was run?
A: The IC50 was 1000 to 50000 nM.

Q: What about the IC50 [2] of the same compound?
A: The IC50 was 100 to 1000 nM.

Q: With Nc1ncc(-c2cnc(C3CCOCC3)s2)cc1OCc1cc(C#CC2(O)CC2)ccc1F [A46] as the compound, how does the IC50 [1] read?
A: Its IC50 is < 1000 nM.

Q: And the IC50 [2]?
A: Its IC50 is < 100 nM.

Q: Which IC50 [1] does the source give for Nc1ncc(-c2cnn(C3CCOCC3)c2)cc1OCc1cccc(C#CC2(O)CC2)c1 [A47] here?
A: Its IC50 is < 1000 nM.

Q: What about the IC50 [2] of the same compound?
A: Its IC50 is < 100 nM.

Q: How did the IC50 [1] turn out when CN1CCC(c2ncc(-c3cnc(N)c(OCc4cc(C#CC5(O)CC5)ccc4F)c3)s2)CC1 [A48] was run?
A: Its IC50 is < 1000 nM.

Q: What about the IC50 [2] of the same compound?
A: The IC50 was < 100 nM.

Q: Which results are given for CC(C)(O)C#Cc1cccc(COc2cc(-c3cnc(C4CCCCN4)s3)cnc2N)c1 (stereo not shown) [A49]?
A: IC50 [1]: < 1000 nM; IC50 [2]: < 100 nM

Q: Nc1ncc(-c2cnc(C3CCOCC3)s2)cc1OCc1cccc(C#CC2(O)CC2)c1 [A50] was tested. Which IC50 [1] did it give?
A: The IC50 was < 1000 nM.

Q: What about the IC50 [2] of the same compound?
A: Its IC50 is < 100 nM.

Q: For Nc1ncc(-c2cnn(C3CCOCC3)c2)cc1OCc1cc(C#CC2(O)CC2)ccc1F [A51], which IC50 [1] is on record?
A: The IC50 was < 1000 nM.

Q: What about the IC50 [2] of the same compound?
A: The IC50 was < 100 nM.

Q: What does the source list for Nc1ncc(-c2cnc(C3CCNCC3)s2)cc1OCc1cccc(C#CC2(O)CC2)c1 [A52]?
A: IC50 [1]: < 1000 nM; IC50 [2]: < 100 nM

Q: Which results are given for Nc1ncc(-c2cnc(C3CCNCC3)s2)cc1OCc1cc(C#CC2(O)CC2)ccc1F [A53]?
A: IC50 [1]: < 1000 nM; IC50 [2]: < 100 nM

Q: How did the IC50 [1] turn out when Nc1ncc(-c2cnn(C3CCNCC3)c2)cc1OCc1cccc(C#CC2(O)CC2)c1 [A54] was run?
A: The IC50 was < 1000 nM.

Q: What about the IC50 [2] of the same compound?
A: Its IC50 is < 100 nM.

Q: With CN1CCC(c2ncc(-c3cnc(N)c(OCc4cc(C#CC(C)(C)O)ccc4Cl)c3)s2)CC1 [A55] as the compound, how does the IC50 [1] read?
A: Its IC50 is < 1000 nM.

Q: What about the IC50 [2] of the same compound?
A: The IC50 was < 100 nM.

Q: What does the source list for CC(C)(O)C#Cc1cccc(COc2cc(-c3cnc(C4CCCNC4)s3)cnc2N)c1 (stereo not shown) [A56]?
A: IC50 [1]: < 1000 nM; IC50 [2]: < 100 nM

Q: Which results are given for CN1CCC(c2ncc(-c3cnc(N)c(OCc4cc(F)cc(C#CC(C)(C)O)c4)c3)s2)CC1 [A57]?
A: IC50 [1]: < 1000 nM; IC50 [2]: < 100 nM

Q: With CN1CCC(c2ccnc(-c3cnc(N)c(OCc4cccc(C#CC(C)(C)O)c4)c3)c2)CC1 [A58] as the compound, how does the IC50 [2] read?
A: The IC50 was 100 to 1000 nM.

Q: For CN1CCC(c2ncc(-c3cnc(N)c(OCc4cccc(C#CC5(O)CCCCC5=O)c4)c3)s2)CC1 (stereo not shown) [A61], which IC50 [2] is on record?
A: The IC50 was 100 to 1000 nM.

Q: Which IC50 [2] does the source give for CC(C)c1ncc(-c2cnc(N)c(OCc3cc(C#CC(C)(C)O)ccc3CN)c2)s1 [A67] here?
A: Its IC50 is < 100 nM.

Q: How did the IC50 [2] turn out when CN1CCN(C2CCN(c3ncc(-c4cnc(N)c(OCc5cccc(C#CC(C)(C)O)c5)c4)s3)CC2)CC1 [A69] was run?
A: Its IC50 is < 100 nM.

Q: For CC(C)c1ncc(-c2cnc(N)c(OCc3cc(C#CC(C)(C)O)cc(CN)c3)c2)s1 [A70], which IC50 [2] is on record?
A: The IC50 was < 100 nM.

Q: With CN1CCC(c2ncc(-c3cnc(N)c(OCc4cccc(C#CC(C)(C)O)c4)c3)s2)C1 (stereo not shown) [A72] as the compound, how does the IC50 [2] read?
A: Its IC50 is < 100 nM.

Q: How did the IC50 [2] turn out when CN1CCC(n2cc(-c3cnc(N)c(OCc4cc(C#CC(C)(C)O)ccc4F)c3)cn2)CC1 [A73] was run?
A: The IC50 was < 100 nM.

Q: Which IC50 [2] does the source give for CN1CCC(n2cc(-c3cnc(N)c(OCc4cccc(C#CC(C)(O)CF)c4)c3)cn2)CC1 (stereo not shown) [A74] here?
A: Its IC50 is < 100 nM.

Q: Which IC50 [2] does the source give for CN1CCC(c2ncc(-c3cnc(N)c(OCc4ccc(F)c(C#CC(C)(C)O)c4)c3)s2)CC1 [A75] here?
A: The IC50 was < 100 nM.

Q: With CN1CCC(c2ncc(-c3cnc(N)c(OCc4cc(C#CC(C)(C)O)ccc4C(F)(F)F)c3)s2)CC1 [A76] as the compound, how does the IC50 [2] read?
A: Its IC50 is < 100 nM.

Q: How did the IC50 [2] turn out when CC(C)(O)C#Cc1cccc(COc2cc(-c3cnn(C4CCNCC4)c3)cnc2N)c1 [A79] was run?
A: Its IC50 is < 100 nM.

Q: With CC(C)(O)C#Cc1cccc(COc2cc(-c3cnn(C4CCOCC4)c3)cnc2N)c1 [A80] as the compound, how does the IC50 [2] read?
A: Its IC50 is < 100 nM.

Q: How did the IC50 [2] turn out when CC(C)(O)C#Cc1cc(CN)cc(COc2cc(-c3cnc(C4CCOCC4)s3)cnc2N)c1 [A81] was run?
A: Its IC50 is < 100 nM.

Q: Which IC50 [2] does the source give for CN1CCC(c2ncc(-c3cnc(N)c(OCc4cc(C#CC(C)(C)O)cc(CN)c4)c3)s2)CC1 [A83] here?
A: The IC50 was < 100 nM.

Q: Which IC50 [2] does the source give for CC(C)(O)C#Cc1ccc(CN)c(COc2cc(-c3cnc(C4CCOCC4)s3)cnc2N)c1 [A84] here?
A: Its IC50 is < 100 nM.

Q: How did the IC50 [2] turn out when Nc1ncc(-c2cccc(N3CCOCC3=O)c2)cc1OCc1ccncc1 [A85] was run?
A: The IC50 was > 1000 nM.
